Legend:
DDX49_258 = biological target: T1, DDX49_258 (Homo sapiens, UniProt Q9Y6V7); assay: IA-DTB cysteine engagement; assay type: binding; conditions: 22Rv1 cells, 5 μM probe, 1 h (FIG. 5B), relative to DMSO
T1 construct: endogenous in cells; host or cells: 22Rv1
Method in brief: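 Cells were treated in situ with electrophilic probes, then lysed, and the lysates (2 mg/mL protein) were labeled with IA-DTB for 1 h at ambient temperature. After reduction, alkylation and trypsin digestion, labeled peptides were streptavidin-enriched, TMT-labeled and fractionated. Engagement ratios are probe vs DMSO reporter intensities, averaged across replicates.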

[1] = test system: SIINFEKL presentation in E.G7-Ova cells; assay: FACS analysis with citric acid wash; assay type: cell-based, mouse; conditions: 4 h treatment, recovery up to 4 h
Procedure: E.G7-Ova cells (2 million/mL) were treated with compounds for 4 hours, washed with PBS, and then washed with 1 mL of 131 mM citric acid for 2 minutes, quenched with 1 mL 66 mM NaH2PO4, and then washed with PBS 3 times. Cells were then resuspended in warm RPMI and allowed to recover for the indicated period, after which cells were washed with PBS and transferred to 96 well plates for staining. Each well was washed with 200 μL PBS, and then stained for 20 minutes with 50 μL of staining solution: 1:1000 fixable near-IR LIVE/DEAD stain (Invitrogen) and 1:200 dilution of anti-SIINFEKL (BioLegend) or anti-Kb (BioLegend) antibody in FACS buffer (2% FBS in PBS supplemented with PenStrep and sterile filtered). Additional wells were used as unstained or singly-stained controls. After staining, cells were washed with PBS, then fixed in 200 μL 4% paraformaldehyde in PBS for 15 minutes. Cells were resuspended in 75 μL FACS buffer and analyzed on a Novocyte flow cytometer. The corresponding data in FIG. 2J are presented as the average percentage of median fluorescence intensity relative to DMSO treated control±SD from n=4 replicates. The corresponding data in FIG. 2K are presented as the average percentage of MFI relative to DMSO treated control±SD from n=3 replicates. Statistical analysis was performed using GraphPad PRISM Version 9.0.0.

p27 = assay: anti-p27 western blot; assay type: cell-based, human; conditions: 22Rv1 cells, 24 h
SF3B1 C1111 = biological target: T2, SF3B1 C1111 (Homo sapiens, UniProt O75533+Q7RTV0); assay: Parallel reaction monitoring of IA-DTB labeled SF3B1 peptides; assay type: binding; conditions: 22Rv1 cells
T2 construct: Cysteine engagement data from 22Rv1 cells treated; endogenous in cells; host or cells: 22Rv1
T2 sequence (O75533 whole entry): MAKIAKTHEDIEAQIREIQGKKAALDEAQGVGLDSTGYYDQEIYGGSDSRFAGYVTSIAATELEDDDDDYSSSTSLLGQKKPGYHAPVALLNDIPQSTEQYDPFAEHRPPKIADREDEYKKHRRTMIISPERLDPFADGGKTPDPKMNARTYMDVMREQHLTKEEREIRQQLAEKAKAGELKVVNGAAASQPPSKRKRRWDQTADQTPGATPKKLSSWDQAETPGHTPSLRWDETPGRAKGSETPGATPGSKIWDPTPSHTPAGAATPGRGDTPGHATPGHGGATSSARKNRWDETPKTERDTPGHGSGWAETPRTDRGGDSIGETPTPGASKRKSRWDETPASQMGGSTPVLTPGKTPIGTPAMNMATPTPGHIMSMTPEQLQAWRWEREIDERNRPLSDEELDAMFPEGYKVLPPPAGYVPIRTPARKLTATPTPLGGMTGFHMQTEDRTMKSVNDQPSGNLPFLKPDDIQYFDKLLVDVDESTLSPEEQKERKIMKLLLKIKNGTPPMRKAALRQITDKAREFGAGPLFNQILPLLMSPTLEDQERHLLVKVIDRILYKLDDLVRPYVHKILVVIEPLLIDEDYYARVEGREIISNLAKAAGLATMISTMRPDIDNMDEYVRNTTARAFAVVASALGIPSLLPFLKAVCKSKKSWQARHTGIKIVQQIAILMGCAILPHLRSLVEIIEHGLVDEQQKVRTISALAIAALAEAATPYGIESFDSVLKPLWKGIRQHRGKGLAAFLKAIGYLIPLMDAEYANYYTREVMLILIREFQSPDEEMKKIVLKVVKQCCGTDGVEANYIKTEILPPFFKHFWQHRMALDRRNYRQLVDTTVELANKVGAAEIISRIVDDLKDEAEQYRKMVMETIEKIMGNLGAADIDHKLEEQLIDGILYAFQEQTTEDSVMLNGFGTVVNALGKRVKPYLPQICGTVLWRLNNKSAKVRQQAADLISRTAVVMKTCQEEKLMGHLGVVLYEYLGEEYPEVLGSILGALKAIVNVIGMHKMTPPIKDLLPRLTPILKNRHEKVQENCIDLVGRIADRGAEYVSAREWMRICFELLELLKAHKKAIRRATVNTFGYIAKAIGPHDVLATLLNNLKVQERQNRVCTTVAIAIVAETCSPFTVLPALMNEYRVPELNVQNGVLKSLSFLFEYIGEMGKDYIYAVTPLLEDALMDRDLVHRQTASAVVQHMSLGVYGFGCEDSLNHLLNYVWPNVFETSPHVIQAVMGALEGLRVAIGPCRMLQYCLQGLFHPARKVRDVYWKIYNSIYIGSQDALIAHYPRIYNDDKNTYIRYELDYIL
T2 sequence (Q7RTV0 whole entry): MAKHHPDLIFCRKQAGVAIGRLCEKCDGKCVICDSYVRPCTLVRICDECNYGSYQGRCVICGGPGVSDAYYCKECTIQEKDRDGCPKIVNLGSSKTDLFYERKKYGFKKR
T2 sequence (Q15393 whole entry partner): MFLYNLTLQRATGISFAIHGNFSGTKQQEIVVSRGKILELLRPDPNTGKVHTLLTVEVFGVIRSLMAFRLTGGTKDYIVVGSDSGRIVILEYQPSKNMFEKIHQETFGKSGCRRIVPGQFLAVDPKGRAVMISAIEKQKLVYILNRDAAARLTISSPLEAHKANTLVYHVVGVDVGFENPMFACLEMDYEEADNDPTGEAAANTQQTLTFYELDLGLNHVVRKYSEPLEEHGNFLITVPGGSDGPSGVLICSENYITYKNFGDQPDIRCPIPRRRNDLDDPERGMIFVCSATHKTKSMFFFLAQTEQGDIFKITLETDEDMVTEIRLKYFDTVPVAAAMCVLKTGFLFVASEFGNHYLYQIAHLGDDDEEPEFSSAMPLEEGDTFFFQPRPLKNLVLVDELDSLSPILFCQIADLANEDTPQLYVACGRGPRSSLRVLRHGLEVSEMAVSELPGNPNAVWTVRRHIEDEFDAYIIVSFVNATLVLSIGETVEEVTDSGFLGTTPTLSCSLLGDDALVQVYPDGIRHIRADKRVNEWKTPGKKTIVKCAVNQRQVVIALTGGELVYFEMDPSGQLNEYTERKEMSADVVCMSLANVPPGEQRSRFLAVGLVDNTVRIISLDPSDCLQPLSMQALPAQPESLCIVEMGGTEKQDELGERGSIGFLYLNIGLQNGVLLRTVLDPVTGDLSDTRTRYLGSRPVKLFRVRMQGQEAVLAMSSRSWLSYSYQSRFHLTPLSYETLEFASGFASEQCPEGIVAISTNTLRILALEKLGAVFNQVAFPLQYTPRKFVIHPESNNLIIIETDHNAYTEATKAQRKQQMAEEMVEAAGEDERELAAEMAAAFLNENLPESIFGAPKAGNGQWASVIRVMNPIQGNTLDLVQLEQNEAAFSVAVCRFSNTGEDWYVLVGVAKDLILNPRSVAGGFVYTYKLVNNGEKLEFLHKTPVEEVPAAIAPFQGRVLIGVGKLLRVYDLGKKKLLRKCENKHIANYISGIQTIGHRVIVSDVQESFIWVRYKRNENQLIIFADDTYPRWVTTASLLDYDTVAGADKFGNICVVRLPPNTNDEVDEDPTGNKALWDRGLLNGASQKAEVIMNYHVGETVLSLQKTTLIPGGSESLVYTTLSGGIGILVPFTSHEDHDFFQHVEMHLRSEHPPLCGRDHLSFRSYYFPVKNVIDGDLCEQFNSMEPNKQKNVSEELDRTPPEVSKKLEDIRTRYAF
T2 sequence (Q9BWJ5 whole entry partner): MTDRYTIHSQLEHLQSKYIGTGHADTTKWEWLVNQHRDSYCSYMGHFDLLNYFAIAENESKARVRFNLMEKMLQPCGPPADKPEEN
Procedure: Dry peptide samples were reconstituted in a water/acetonitrile (85:15) mixture containing 0.1% formic acid (100 μl) and 15 μl was injected on to an EASY-Spray C18 loading column (5 μm particle size, 100 μm×2 cm; Fisher Scientific, DX164564) and resolved on a custom analytical column (2 μM particle size, 75 μm×15 cm) using a Dionex Ultimate 3000 nano-LC (Thermo Fisher Scientific). Peptides were separated over a 60-min gradient of 15 to 33% acetonitrile (0.1% formic acid) and analyzed on a Q-Exactive instrument (Thermo Fisher Scientific) using a parallel reaction monitoring method targeting the SF3B1 peptide containing C1111 (amino acids 1110-1149, missed tryptic, +3 charge state). Selected precursor ions were isolated and fragmented by high-energy collision dissociation and fragments were detected in the Orbitrap at 17,500 resolution.
Raw data files were uploaded analyzed in Skyline (v.21.1.0.278) to determine the abundance of each peptide in vehicle-treated samples relative to inhibitor-treated samples. Peptide quantification was performed by calculating the sum of the peak areas corresponding to six fragment ions from each peptide. The peptides and fragment ions were preselected from in-house reference spectral libraries acquired in data-dependent acquisition mode to identify authentic spectra for each peptide.

T1 sequence (Q9Y6V7 whole entry): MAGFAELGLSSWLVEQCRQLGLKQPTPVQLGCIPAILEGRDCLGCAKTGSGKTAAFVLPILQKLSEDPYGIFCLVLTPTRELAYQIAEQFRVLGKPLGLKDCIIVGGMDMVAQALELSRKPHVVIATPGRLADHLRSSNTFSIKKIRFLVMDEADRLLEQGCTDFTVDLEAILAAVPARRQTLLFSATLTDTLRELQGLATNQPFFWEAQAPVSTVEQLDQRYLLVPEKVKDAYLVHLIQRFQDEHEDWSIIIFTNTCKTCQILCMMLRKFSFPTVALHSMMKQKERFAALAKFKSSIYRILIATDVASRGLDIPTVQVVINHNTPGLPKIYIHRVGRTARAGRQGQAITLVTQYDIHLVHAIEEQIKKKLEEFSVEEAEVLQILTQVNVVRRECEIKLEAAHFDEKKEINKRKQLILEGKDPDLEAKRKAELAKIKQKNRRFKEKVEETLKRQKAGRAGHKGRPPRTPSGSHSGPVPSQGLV

| Compound | % engagement DDX49_258 (DDX49_258) [%] | SIINFEKL presentation after acid wash [1] | p27 expression (p27) | IA-DTB labeling of other cysteines in SF3B1 (SF3B1 C1111) | IA-DTB reaction with SF3B1 C1111 (SF3B1 C1111; 20 μM, 24 h) |
| --- | --- | --- | --- | --- | --- |
| CC#CC(=O)N1C[C@H](c2ccc(Br)cc2)[C@@H]1C(=O)Nc1cccc2cccnc12 [MY-45B, (2R,3S)-3-(4-bromophenyl)-1-(but-2-ynoyl)-N-(quinolin-8-yl)azetidine-2-carboxamide] | 82.25 | time- and concentration-dependent reduction in SIINFEKL presentation | – | – | – |
| C=CC(=O)N1C[C@H](c2ccc(Br)cc2)[C@@H]1C(=O)Nc1cccc2cccnc12 [MY-1B, (2R,3S)-1-acryloyl-3-(4-bromophenyl)-N-(quinolin-8-yl)azetidine-2-carboxamide] | 5.50 | – | – | – | – |
| C=CC(=O)N1[C@H](c2ccc3c(c2)OCO3)c2[nH]c3ccccc3c2C[C@H]1C(=O)N1CCOCC1 [WX-02-23, 1-((1R,3S)-1-(benzo[d][1,3]dioxol-S-yl)-3-(morpholine-4-carbonyl)-1,3,4,9-tetrahydro-2H-pyrido [3,4-b]indol-2-yl)prop-2-en-1-one] | – | – | induced expression of p27 | did not affect other cysteines in SF3B1 | stereoselectively blocked |

From patent publication US20250034216A1, “STEREOSELECTIVE COVALENT LIGANDS FOR ONCOGENIC AND IMMUNOLOGICAL PROTEINS” (The Scripps Research Institute, priority 2021, published 2025)
